{"source": "patent US10752607B2", "about": "“Polymorphs of N-[(6-cyano-2-fluoro)-3-methoxyphenyl)methyl]-3-(methoxymethyl)-1-({4-[(2-oxopyridin-1-yl)methyl]phenyl}methyl)pyrazole-4-carboxamide as kallikrein inhibitors” (KALVISTA PHARMACEUTICALS LIMITED, priority 2016, dated 2020)", "key": {"[1]": {"conditions": "in vivo; cited from earlier work"}, "rats": {"test_system": "rats", "conditions": "systemic administration; cited from earlier work"}, "[2]": {"conditions": "contacting blood with the inhibitor; cited from earlier work"}, "[3]": {"test_system": "intrinsic pathway of coagulation", "conditions": "in vitro; cited from earlier work"}, "Human FXIa": {"target": "T1, Human FXIa (Homo sapiens, UniProt P03951)", "T1 construct": "purchased Enzyme Research Laboratories", "T1 sequence (P03951 388-625 limits assumed)": "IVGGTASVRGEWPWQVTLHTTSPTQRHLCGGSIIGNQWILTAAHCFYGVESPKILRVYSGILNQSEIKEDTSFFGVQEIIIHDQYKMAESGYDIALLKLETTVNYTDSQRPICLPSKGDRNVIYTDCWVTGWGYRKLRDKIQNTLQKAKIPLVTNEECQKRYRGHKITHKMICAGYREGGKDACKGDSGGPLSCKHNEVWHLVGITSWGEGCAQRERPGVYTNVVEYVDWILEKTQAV", "T1 sequence (P03951 19-387 partner limits assumed)": "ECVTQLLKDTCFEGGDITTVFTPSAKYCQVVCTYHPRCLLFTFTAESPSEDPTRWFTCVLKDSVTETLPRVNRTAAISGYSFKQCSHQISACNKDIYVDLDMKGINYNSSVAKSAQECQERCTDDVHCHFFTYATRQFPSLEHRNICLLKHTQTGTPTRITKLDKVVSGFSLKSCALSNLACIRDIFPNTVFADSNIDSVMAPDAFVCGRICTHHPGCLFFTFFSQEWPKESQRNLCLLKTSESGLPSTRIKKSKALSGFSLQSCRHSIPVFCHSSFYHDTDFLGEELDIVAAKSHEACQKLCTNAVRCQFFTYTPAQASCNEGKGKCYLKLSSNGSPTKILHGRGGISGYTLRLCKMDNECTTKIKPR", "assay": "Determination of the % inhibition for FXIa (fluorogenic substrate Z-Gly-Pro-Arg-AFC)", "type": "biochemical", "conditions": "40 μM test compound, 25° C.", "protocol": "Determination of the % Inhibition for FXIa\nFXIa inhibitory activity in vitro was determined using standard published methods (see e.g. Johansen et al., Int. J. Tiss. Reac. 1986, 8, 185; Shori et al., Biochem. Pharmacol., 1992, 43, 1209; Stürzebecher et al., Biol. Chem. Hoppe-Seyler, 1992, 373, 1025). Human FXIa (Enzyme Research Laboratories) was incubated at 25° C. with the fluorogenic substrate Z-Gly-Pro-Arg-AFC and 40 μM of the test compound. Residual enzyme activity (initial rate of reaction) was determined by measuring the change in […]."}, "[4]": {"assay": "Pharmacokinetic study, single oral dose in male Sprague-Dawley rats", "type": "in vivo", "conditions": "male Sprague-Dawley rat, 10% DMSO/10% cremophor/80% SWFI, plasma", "protocol": "A pharmacokinetic study of N-[(6-cyano-2-fluoro-3-methoxyphenyl)methyl]-3-(methoxymethyl)-1-({4-[(2-oxopyridin-1-yl)methyl]phenyl}methyl)pyrazole-4-carboxamide was performed to assess the pharmacokinetics following a single oral dose in male Sprague-Dawley rats. Two rats were given a single po dose of 5 mL/kg of a nominal 2 mg/mL (10 mg/kg) composition of test compound in vehicle. Following dosing, blood samples were collected over a period of 24 hours. Sample times were 5, 15 and 30 minutes then 1, 2, 4, 6, 8 and […]. Following collection, blood samples were centrifuged and the plasma fraction analysed for concentration of test compound by LCMS."}, "[5]": {"test_system": "LPS-induced disseminated intravascular coagulation", "conditions": "cited from earlier work"}}, "data": [{"compound": "N=C(N)c1ccc(CNC(=O)c2cnn(Cc3ccccc3)c2)cc1", "note": "[ASP-440]", "values": [{"measurement": "oral availability", "setting": "[1]", "result": "poor oral availability"}, {"measurement": "hematoma expansion", "setting": "rats", "result": "reduced hematoma expansion"}]}, {"compound": "Ecallantide", "values": [{"measurement": "activated clotting time (ACT)", "setting": "[2]", "result": "increase in activated clotting time (ACT)"}, {"measurement": "contact activated induced coagulation", "setting": "[3]", "result": "delay contact activated induced coagulation"}]}, {"compound": "COCc1nn(Cc2ccc(Cn3ccccc3=O)cc2)cc1C(=O)NCc1c(C#N)ccc(OC)c1F", "note": "[N-[(6-cyano-2-fluoro-3-methoxyphenyl)methyl]-3-(methoxymethyl)-1-({4-[(2-oxopyridin-1-yl)methyl]phenyl}methyl)pyrazole-4-carboxamide]", "values": [{"measurement": "inhibition at 40 µM", "setting": "Human FXIa", "result": 28, "unit": "%"}, {"measurement": "Cmax", "setting": "[4]; single po dose 5.5 mg/kg", "result": 397, "unit": "ng/mL"}, {"measurement": "Tmax", "setting": "[4]; single po dose 5.5 mg/kg", "result": 30, "unit": "min"}, {"measurement": "Cmax", "setting": "[4]; single po dose 7.8 mg/kg", "result": 360, "unit": "ng/mL"}, {"measurement": "Tmax", "setting": "[4]; single po dose 7.8 mg/kg", "result": 60, "unit": "min"}]}, {"compound": "Cl.NCC1CCC(C(=O)N[C@@H](Cc2ccccc2)C(=O)Nc2ccc(CC(=O)O)cc2)CC1", "note": "(stereo partly shown) [PKSI-527]", "values": [{"measurement": "platelet count, fibrinogen level and FDP level", "setting": "[5]", "result": "significantly suppressed the decrease in platelet count and fibrinogen level as well as the increase in FDP level"}]}]}
